{"source": "paper PMC3660367", "about": "“MARCKS Protein Is Phosphorylated and Regulates Calcium Mobilization during Human Acrosomal Exocytosis” (PLoS ONE, 2013)", "test_system": "acrosomal exocytosis in non-permeabilized human sperm", "assay": "Acrosomal exocytosis assay in non-permeabilized (living) human sperm", "format": "cell-based", "description": "Acrosomal exocytosis assays were performed as previously described. Briefly, human semen obtained from normal healthy donors was allowed to liquefy for 30-60 min at 37°C. We used a swim-up protocol to isolate highly motile sperm under capacitating conditions in Human Tubal Fluid media (HTF, as formulated by Irvine Scientific, Santa Ana, CA) supplemented with 0.5% bovine serum albumin (BSA) for 1 h at 37°C in an atmosphere of 5% CO2/95% air. Sperm concentrations were adjusted to 5–10×10^6 cells/ml and incubated for at least 2 h under capacitating conditions. We have shown previously that human sperm incubated under these conditions are responsive to progesterone. […] Acrosomal status was evaluated by staining with FITC-coupled Pisum sativum agglutinin (FITC-PSA) according to [21]. At least 200 cells were scored using a Nikon Optiphot II microscope equipped with epifluorescence optics. […] For each experiment, acrosomal exocytosis indexes were calculated by subtracting the number of reacted spermatozoa in the negative control (range 10%–30%) from all values, and expressing the resulting values as a percentage of the acrosome exocytosis observed in the positive control (range 25%–40%). […] Data were evaluated using one-way ANOVA and post hoc tests (Dunnett's test or confident intervals). […]", "note": "No end group written: not given here."}
{"sequence": "KKRFSFKKSFKL (also: tetramethylrhodamine conjugate, site not given here) [ED-TMR, commercial (Anaspec) tetramethylrhodamine-conjugated peptide … from residues 154–165 of human MARCKS ED]", "values": [{"measurement": "effect on acrosomal exocytosis stimulated by A23187, PMA and progesterone", "setting": "non-permeabilized capacitated sperm, peptide 30 min 37°C, then 10 µM A23187, 200 nM PMA or 15 µM progesterone 15 min", "value": "inhibited the secretion"}, {"measurement": "acrosomal exocytosis index at high concentrations versus unstimulated controls (basal exocytosis)", "setting": "non-permeabilized sperm, high concentrations", "value": "significantly lower than the index in unstimulated controls"}]}
